Measurements published in US10399964B2, “Coumarin-linked taxanes for detection and circumvention of cellular efflux” (The University of Kansas, priority 2017, dated 2019).
Entries after “also recorded” stand apart in the source; their conditions may differ.

What was measured:
P-gp in HeLa cells = P-gp in HeLa cells (Homo sapiens, UniProt P08183); test: P-gp efflux: cellular fluorescence with or without verapamil by flow cytometry, HeLa; details: probe 1 μM
P-gp in HCT-15 cells = P-gp in HCT-15 cells (Homo sapiens, UniProt P08183); test: P-gp efflux: cellular fluorescence with or without verapamil by flow cytometry, HCT-15; details: probe 1 μM
Experimental: Studies were conducted to investigate the efflux of Compound 1 in HCT-15 cells that express high levels of P-gp. Compound 1 was compared with rhodamine 123 (Rho123), a common P-gp substrate that accumulates in mitochondria.

HeLa cells = test: Subcellular distribution and colocalization by confocal microscopy in living HeLa cells; format: cell-based; details: for binding to microtubules in cells: HeLa cells transfected with mCherry-tubulin; for subcellular distribution / colocalization: confocal microscopy, 1 h
Experimental: To examine the subcellular distribution of Compound 1, HeLa cells were imaged by confocal laser scanning microscopy (FIGS. 5A, 5B, and 5C). […] The distinct spectral profiles of PB and OG were used to further examine colocalization of Compound 1 and Flutax-2® (FIG. 5C).
The experiment was conducted by 1 hour incubation with HeLa cells, followed by a wash and then imaging using a 25% laser power with excitation at 405 nm and emission at 425-500 nm.
The studies compared the potency as an endoplasmic reticulum probe with commercial ER probe ER Tracker Blue-White DPX. […] Panels A and B used 1 nM of the compounds, Panels A1 and B1 used 10 nM of the compounds, Panels A2 and B2 used 100 nM of the compounds, and Panels A3 and B3 used 1 μM of the compounds.
As such, Compound 2 (PB-β-Ala-Taxol) was compared to iPr-Rhodol-β-Ala-Taxol with HeLa cells transfected with mCherry-tubulin.

[1] = molecular target: cross-linked microtubules from bovine brain; test: Affinity for cross-linked microtubules by fluorescence enhancement; details: GAB buffer (pH 6.5); equilibrium binding curves; excitation 405 nm; read-out: apparent Kd
Experimental: PB was excited at 405 nm and emitted photons were collected at and above 450 nm.
Experiments were conducted to obtain the measured affinities of Compounds 1-3 for cross-linked microtubules from bovine brain using a fluorescence enhancement method (FIG. 2). […] PB was excited at 405 nm and emitted photons were collected at and above 450 nm.

[2] = test system: HeLa cervical carcinoma cells; test: Cytotoxicity, cellular viability by flow cytometry, HeLa; details: for IC50 / relative toxicity (cellular viability versus concentration): HeLa cells; for IC50: 48 h; for relative toxicity (cellular viability versus concentration): FIG. 9
Experimental: The cytotoxicity of the taxane PB fluorophores towards HeLa cervical carcinoma cells (FIGS. 4A and 4B) was evaluated. These cell lines were treated for 48 h, cellular viability was analyzed by flow cytometry, and paclitaxel was used as a positive control.
The IC50s were also determined.

[3] = test system: HeLa, Ramos, Raji, HL-60, and Jurkat cell lines; test: Uptake into different cell lines by flow cytometry; format: cell-based; details: 1 μM, 1 h, 200,000 cells/200 μL; verapamil 0, 25, 100 μM
Experimental: The uptake of Compound 1 (PB-Gly-Taxol, at 1 μM, 1 h, 200,000 cells/200 μL) by different cell lines was studied and quantified by using flow cytometry.

HCT-15 cells = test: Cytotoxicity, cellular viability by flow cytometry, HCT-15; format: cell-based; details: for IC50: Homo sapiens, HCT-15, 48 h, 48 h

P-gp in HCT-15 cells, sequence (P08183 whole entry): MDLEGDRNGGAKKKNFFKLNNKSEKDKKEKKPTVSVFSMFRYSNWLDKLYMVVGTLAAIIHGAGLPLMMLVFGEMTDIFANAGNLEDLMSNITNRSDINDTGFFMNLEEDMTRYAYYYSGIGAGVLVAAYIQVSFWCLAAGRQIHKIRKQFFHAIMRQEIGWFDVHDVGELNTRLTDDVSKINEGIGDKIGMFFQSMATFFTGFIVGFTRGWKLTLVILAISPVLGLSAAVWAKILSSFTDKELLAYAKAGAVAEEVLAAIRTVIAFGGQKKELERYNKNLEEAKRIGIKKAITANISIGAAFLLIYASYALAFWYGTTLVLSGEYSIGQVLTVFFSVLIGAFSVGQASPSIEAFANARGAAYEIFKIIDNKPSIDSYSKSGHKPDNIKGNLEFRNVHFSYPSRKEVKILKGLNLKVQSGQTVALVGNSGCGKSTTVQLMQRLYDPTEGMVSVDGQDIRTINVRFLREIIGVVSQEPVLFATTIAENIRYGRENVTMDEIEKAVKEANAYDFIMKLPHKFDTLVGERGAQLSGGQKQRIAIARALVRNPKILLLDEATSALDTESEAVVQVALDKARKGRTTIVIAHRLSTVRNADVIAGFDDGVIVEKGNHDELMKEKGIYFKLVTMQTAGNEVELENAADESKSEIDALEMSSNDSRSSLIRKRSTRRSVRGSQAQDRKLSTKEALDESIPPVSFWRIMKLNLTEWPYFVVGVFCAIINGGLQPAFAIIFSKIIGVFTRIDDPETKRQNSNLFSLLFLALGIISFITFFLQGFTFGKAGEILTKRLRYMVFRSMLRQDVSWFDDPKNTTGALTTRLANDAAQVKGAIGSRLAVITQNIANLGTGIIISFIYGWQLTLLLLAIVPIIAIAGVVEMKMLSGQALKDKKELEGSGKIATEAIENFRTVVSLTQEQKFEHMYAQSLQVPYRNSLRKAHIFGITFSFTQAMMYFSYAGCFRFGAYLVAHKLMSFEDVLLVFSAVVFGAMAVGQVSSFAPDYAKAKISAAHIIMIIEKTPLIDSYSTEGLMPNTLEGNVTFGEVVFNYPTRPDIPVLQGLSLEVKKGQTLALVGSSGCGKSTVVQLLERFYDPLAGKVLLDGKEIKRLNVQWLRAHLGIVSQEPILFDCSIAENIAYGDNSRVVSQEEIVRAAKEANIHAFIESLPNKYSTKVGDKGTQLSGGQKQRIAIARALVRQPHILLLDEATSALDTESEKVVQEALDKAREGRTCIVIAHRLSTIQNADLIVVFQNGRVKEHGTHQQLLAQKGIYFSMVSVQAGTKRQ
P-gp in HeLa cells, sequence (P08183 whole entry): as above

Question: Which “detection of low levels of P-gp activity” value (P-gp in HeLa cells) does the source give for rhodamine 123 [Rho123] here?
Answer: The value was “undetectable”.

Question: What about the “increase of cellular fluorescence in presence of verapamil” value (P-gp in HCT-15 cells; verapamil 25 μM) of the same compound?
Answer: Its value is 3 fold.

Question: And the “increase of cellular fluorescence in presence of verapamil” value (P-gp in HCT-15 cells; verapamil 100 μM)?
Answer: The value was 3 fold.

Question: With CC(=O)OC1C(=O)C2(C)C(OC(=O)CCNC(=O)c3cc4cc(F)c(O)c(F)c4oc3=O)CC3OCC3(OC(C)=O)C2C(OC(=O)c2ccccc2)C2(O)CC(OC(=O)C(O)C(NC(=O)c3ccccc3)c3ccccc3)C(C)=C1C2(C)C (stereo not drawn) [Compound 2, PB-β-Ala-Taxol] as the compound, how does the “binding to microtubules in cells” value (HeLa cells) read?
Answer: The value was “can bind to microtubules better than when paclitaxel is coupled to a different fluorophore”.

Question: And the Kd [1]?
Answer: The Kd was 63 ± 8 nM.

Question: For PB-NH2-Gly-Taxol [Compound 22], which “subcellular distribution / colocalization” value (HeLa cells; living HeLa cells) is on record?
Answer: Its value is “accumulate in the endoplasmic reticulum”.

Question: For CC(=O)OC1C(=O)C2(C)C(OC(=O)CCCNC(=O)c3cc4cc(F)c(O)c(F)c4oc3=O)CC3OCC3(OC(C)=O)C2C(OC(=O)c2ccccc2)C2(O)CC(OC(=O)C(O)C(NC(=O)c3ccccc3)c3ccccc3)C(C)=C1C2(C)C (stereo not shown) [Compound 3, PB-GABA-Taxol], which Kd [1] is on record?
Answer: Its Kd is 265 ± 54 nM.

Question: What does the source list for Flutax-2® [reference compound]?
Answer: IC50 ([2]; presence of verapamil (25 μM)): 1310 nM; subcellular distribution / colocalization (HeLa cells; living HeLa cells): punctate fluorescence that did not co-localize with Compound 1 on microtubules

Question: Which results are given for CC(=O)OC1C(=O)C2(C)C(OC(=O)CNC(=O)c3cc4cc(F)c(O)c(F)c4oc3=O)CC3OCC3(OC(C)=O)C2C(OC(=O)c2ccccc2)C2(O)CC(OC(=O)C(O)C(NC(=O)c3ccccc3)c3ccccc3)C(C)=C1C2(C)C (stereo not shown) [Compound 1, PB-Gly-Taxol]?
Answer: effect of verapamil on uptake [3]: the inclusion of verapamil increased the uptake; relative toxicity (cellular viability versus concentration) [2]: less toxic than PB-NHMe-Gly-Taxol (Compound 21); also recorded: less toxic than paclitaxel; IC50 ([2]; Homo sapiens, HeLa, absence of verapamil): 120 nM; IC50 ([2]; Homo sapiens, HeLa, presence of verapamil (25 μM)): 60 nM; subcellular distribution / colocalization (HeLa cells; living HeLa cells): bound microtubules with very high specificity; Kd [1]: 34 ± 6 nM; IC50 (HCT-15 cells; with verapamil (25 μM)): 90 nM; IC50 (HCT-15 cells; without verapamil): 3700 nM; enhancement of toxicity by verapamil (HCT-15 cells; verapamil 25 μM versus none): 41 fold

Question: With CC(=O)O[C@H]1C(=O)[C@@]2(C)C([C@H](OC(=O)c3ccccc3)[C@]3(O)C[C@H](OC(O)[C@H](O)[C@@H](NC(=O)c4ccccc4)c4ccccc4)C(C)=C1C3(C)C)[C@]1(OC(C)=O)CO[C@@H]1C[C@@H]2OC(=O)CCNC(=O)c1ccc(-c2c3cc(F)c(=O)cc-3oc3cc(NC(C)C)c(F)cc23)c(C)c1 (stereo partly drawn) [iPr-Rhodol-β-Ala-Taxol, reference compound] as the compound, how does the “cytotoxicity (in words)” value [2] read?
Answer: The value was “without engendering substantial cytotoxicity”.

Question: And the “binding to microtubules in cells” value (HeLa cells)?
Answer: Its value is “does not bind extensively to microtubules”.

Question: What about the “subcellular distribution / colocalization” value (HeLa cells; living HeLa cells) of the same compound?
Answer: Its value is “appears to accumulate predominantly in the endoplasmic reticulum”.

Question: Which “relative toxicity (cellular viability versus concentration)” value [2] does the source give for PB-NHMe-Gly-Taxol [Compound 21] here?
Answer: Its value is “less toxic than paclitaxel”.

Question: What about the “potency as endoplasmic reticulum probe” value (HeLa cells; living HeLa cells, 1 nM to 1 μM, versus ER Tracker Blue-White DPX) of the same compound?
Answer: The value was “more potent as an endothelium reticulum probe compared to ER Tracker Blue-White DPX”.

Question: And the “subcellular distribution / colocalization” value (HeLa cells; living HeLa cells)?
Answer: Its value is “does not appear to colocalize with Flutax-2® on microtubules”.

Question: What about the “subcellular distribution / colocalization” value (HeLa cells; living HeLa cells, listed as PB-NHMe-Gly-Taxol) of the same compound?
Answer: The value was “accumulate in the endoplasmic reticulum; also recorded: colocalizes with the red fluorescent endoplasmic reticulum probe HRA”.
